# Measurements as given in PubChem BioAssay AID330 (DTP/NCI, 2004).
# Several values for one entry are separate records, joined by “and”; a condition that tells them apart may be missing. Equal entries are not always repeated. Toxic doses and inconclusive results are not listed.
# Test system: P388 leukemia ip, CD2F1 mice, survival T/C
# Test: NCI In Vivo Anticancer Drug Screen. Data for tumor model P388 Leukemia (intraperitoneal) in CD2F1 (CDF1) mice
# Settings: endpoint: median survival time, higher = longer survival
# Procedure, shortened: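 Mice carrying the transplanted tumor received test compound or vehicle. Survival was recorded in each group, and the value is the treated-group measurement divided by that of the vehicle-treated control group.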
# [1] = dose: 50.0 mg/kg/injection, schedule: Q01DX009 (ip), vehicle: saline with Tween-80
# [2] = dose: 12.5 mg/kg/injection, schedule: Q01DX009 (ip), vehicle: saline
# [3] = dose: 30.0 mg/kg/injection, schedule: Q01DX005 (ip), vehicle: saline with Tween-80
# [4] = dose: 60.0 mg/kg/injection, schedule: Q01DX005 (ip), vehicle: saline with Tween-80
# [5] = dose: 120.0 mg/kg/injection, schedule: Q01DX005 (ip), vehicle: saline with Tween-80
compound,measurement,setting,value
C=C/C(C)=C/[C@H](C)C(=O)C[C@H](O)CC1CC(=O)NC(=O)C1,T/C,"dose: 6.25 mg/kg/injection, schedule: Q01DX009 (ip), vehicle: saline with Tween-80",102 % of control
same,T/C,"dose: 6.25 mg/kg/injection, schedule: Q04DX003 (ip), vehicle: saline with Tween-80",111 % of control
same,T/C,"dose: 12.5 mg/kg/injection, schedule: Q01DX009 (ip), vehicle: saline with Tween-80",118 % of control
same,T/C,"dose: 12.5 mg/kg/injection, schedule: Q04DX003 (ip), vehicle: saline with Tween-80",108 % of control
same,T/C,"dose: 25.0 mg/kg/injection, schedule: Q01DX009 (ip), vehicle: saline with Tween-80",155 % of control
same,T/C,"dose: 25.0 mg/kg/injection, schedule: Q04DX003 (ip), vehicle: saline with Tween-80",111 % of control
same,T/C,"dose: 35.0 mg/kg/injection, schedule: Q01DX009 (ip), vehicle: saline with Tween-80",151 % of control
same,T/C,[1],150 % of control
same,T/C,"dose: 50.0 mg/kg/injection, schedule: Q04DX003 (ip), vehicle: saline with Tween-80",111 % of control
same,T/C,"dose: 75.0 mg/kg/injection, schedule: Q01DX009 (ip), vehicle: saline with Tween-80",168 % of control
same,T/C,"dose: 75.0 mg/kg/injection, schedule: Q01DX009 (ip), vehicle: saline",158 % of control
same,T/C,"dose: 100.0 mg/kg/injection, schedule: Q04DX003 (ip), vehicle: saline with Tween-80",121 % of control
same,T/C,"dose: 150.0 mg/kg/injection, schedule: Q01DX009 (ip), vehicle: saline",106 % of control
same,T/C,"dose: 200.0 mg/kg/injection, schedule: Q04DX003 (ip), vehicle: saline with Tween-80",101 % of control and 121 % of control
Cc1cnc(C)c(NN=O)n1,T/C,"dose: 3.12 mg/kg/injection, schedule: Q01DX009 (ip), vehicle: saline",101 % of control and 108 % of control
same,T/C,"dose: 6.25 mg/kg/injection, schedule: Q01DX009 (ip), vehicle: saline",116 % of control and 122 % of control
same,T/C,[2],117 % of control
NC(C(=O)O)C1C=CCC1 (stereo not given),T/C,"dose: 50.0 mg/kg/injection, schedule: Q01DX005 (ip), vehicle: Klucel (hydroxypropylcellulose) (HPC)",106 % of control
same,T/C,"dose: 100.0 mg/kg/injection, schedule: Q01DX005 (ip), vehicle: Klucel (hydroxypropylcellulose) (HPC)",99 % of control
CCOc1ccc(/C=N/NC(=S)NC23CC4CC(CC(C4)C2)C3)cc1OCC,T/C,[3],108 % of control
same,T/C,[4],102 % of control and 86 % of control
same,T/C,[5],90 % of control
O=S(=O)(O)SCCN1CCCCC1,T/C,[2],110 % of control
same,T/C,"dose: 25.0 mg/kg/injection, schedule: Q01DX009 (ip), vehicle: saline",100 % of control
same,T/C,"dose: 50.0 mg/kg/injection, schedule: Q01DX009 (ip), vehicle: saline",100 % of control
COc1cccc(C=Nc2cc(C)ccn2)c1O.COc1cccc(C=Nc2cc(C)ccn2)c1O.[Cu],T/C,"dose: 6.25 mg/kg/injection, schedule: Q01DX005 (ip), vehicle: saline with Tween-80",99 % of control
same,T/C,"dose: 12.5 mg/kg/injection, schedule: Q01DX005 (ip), vehicle: saline with Tween-80",100 % of control
same,T/C,"dose: 25.0 mg/kg/injection, schedule: Q01DX005 (ip), vehicle: saline with Tween-80",96 % of control
CCCCCCCC/C=C\CCCCCCCCSC1=CC(=O)C(OC)=C(OC)C1=O,T/C,"dose: 3.13 mg/kg/injection, schedule: Q01DX009 (ip), vehicle: Klucel (hydroxypropylcellulose) (HPC)",98 % of control
same,T/C,"dose: 6.25 mg/kg/injection, schedule: Q01DX009 (ip), vehicle: Klucel (hydroxypropylcellulose) (HPC)",96 % of control
same,T/C,"dose: 12.5 mg/kg/injection, schedule: Q01DX009 (ip), vehicle: Klucel (hydroxypropylcellulose) (HPC)",100 % of control
same,T/C,"dose: 25.0 mg/kg/injection, schedule: Q01DX009 (ip), vehicle: Klucel (hydroxypropylcellulose) (HPC)",103 % of control
CCOC(=O)C(C(C)=O)C(c1cc(OC)c(OC)c(OC)c1)c1cc2c(cc1O)OCO2 (stereo not given),T/C,"dose: 15.0 mg/kg/injection, schedule: Q01DX005 (ip), vehicle: saline with Tween-80",95 % of control
same,T/C,[3],90 % of control
same,T/C,[4],89 % of control and 92 % of control
same,T/C,[5],100 % of control and 93 % of control
Cc1noc(NS(=O)(=O)c2ccc(N=Nc3cc(N=Nc4ccc(S(=O)(=O)Nc5onc(C)c5C)cc4)c4c(NC(=O)C(Cl)Cl)cccc4c3O)cc2)c1C (tested in a mixture with another compound),T/C,"dose: 50.0 mg/kg/injection, schedule: Q01DX005 (ip), vehicle: saline with Tween-80",117 % of control and 118 % of control
Cc1ccc(NC(=O)Nc2ncn[nH]2)c(C)c1,T/C,[1],107 % of control
same,T/C,"dose: 100.0 mg/kg/injection, schedule: Q01DX009 (ip), vehicle: saline with Tween-80",100 % of control
same,T/C,"dose: 200.0 mg/kg/injection, schedule: Q01DX009 (ip), vehicle: saline with Tween-80",107 % of control
